According to ChEMBL document CHEMBL3885861, “Open TG-GATES”:

Species: Rattus norvegicus
Test: Open TG-GATES - Regimen: Single
Assay type: toxicity, organism-based, Sprague-Dawley
Design: regimen Single, gender Male, age 6 weeks
Details: in vivo, po, route gavage; for gamma-GTP / ALP / ALT / AST / CRE / DBIL / IP / K / LDH / Na / RALB / TBIL / TC / TG / TP: tissue Plasma; for Bas / Eos / Fbg / Hb / Lym / MCH / MCHC / MCV / Mono / Neu / PT / RBC / Ret / APTT / WBC: tissue Blood; for KIDNEY_L / KIDNEY_R / KIDNEY_TOTAL: tissue Kidney

Molecule `Cc1cnc(NC(=O)C2=C(O)c3ccccc3S(=O)(=O)N2C)s1` [MELOXICAM] has a gamma-GTP (0 mg/kg, 24 h, dose level Control) of 1 IU/L, a TERMINAL_BW (10 mg/kg, 3 h, dose level Low) of 224.9 g and a Bas (10 mg/kg, 3 h, dose level Low) of 0.6%. For the same molecule, the Eos (10 mg/kg, 3 h, dose level Low) was 1%, the Fbg (10 mg/kg, 3 h, dose level Low) was 239 mg/dL and the Hb (10 mg/kg, 3 h, dose level Low) was 13.3 g/dL. For the same molecule, the Lym (10 mg/kg, 3 h, dose level Low) was 78%, the MCH (10 mg/kg, 3 h, dose level Low) was 20.8 pg and the MCHC (10 mg/kg, 3 h, dose level Low) was 33.6%. It also gave an MCV (10 mg/kg, 3 h, dose level Low) of 62 fL, a Mono (10 mg/kg, 3 h, dose level Low) of 2% and a Neu (10 mg/kg, 3 h, dose level Low) of 18.2%. The PT (10 mg/kg, 3 h, dose level Low) was 12.2 s, the RBC (10 mg/kg, 3 h, dose level Low) was 638.8 x10_4/ul and the Ret (10 mg/kg, 3 h, dose level Low) was 7.2%. The KIDNEY_L (10 mg/kg, 3 h, dose level Low) was 1 g, the KIDNEY_R (10 mg/kg, 3 h, dose level Low) was 1 g and the KIDNEY_TOTAL (10 mg/kg, 3 h, dose level Low) was 2 g. The ALP (10 mg/kg, 3 h, dose level Low) was 867.6 IU/L, the ALT (10 mg/kg, 3 h, dose level Low) was 31.8 IU/L and the AST (10 mg/kg, 3 h, dose level Low) was 65.8 IU/L. The CRE (10 mg/kg, 3 h, dose level Low) was 0.3 mg/dL, the DBIL (10 mg/kg, 3 h, dose level Low) was 0.06 mg/dL and the IP (10 mg/kg, 3 h, dose level Low) was 9 mg/dL. It also gave a K (10 mg/kg, 3 h, dose level Low) of 4 meq/L, an LDH (10 mg/kg, 3 h, dose level Low) of 138 IU/L and a Na (10 mg/kg, 3 h, dose level Low) of 141 meq/L. It also gave an RALB (10 mg/kg, 3 h, dose level Low) of 3.3 g/dL, a TBIL (10 mg/kg, 3 h, dose level Low) of 0.1 mg/dL and a TC (10 mg/kg, 3 h, dose level Low) of 73.6 mg/dL. The TG (10 mg/kg, 3 h, dose level Low) was 62.6 mg/dL, the TP (10 mg/kg, 3 h, dose level Low) was 5.5 g/dL and the gamma-GTP (10 mg/kg, 3 h, dose level Low) was 0.8 IU/L. The TERMINAL_BW (10 mg/kg, 6 h, dose level Low) was 223 g, the APTT (10 mg/kg, 6 h, dose level Low) was 17.8 s and the Bas (10 mg/kg, 6 h, dose level Low) was 0.6%. For the same molecule, the Eos (10 mg/kg, 6 h, dose level Low) was 0.6%, the Fbg (10 mg/kg, 6 h, dose level Low) was 211.6 mg/dL and the Hb (10 mg/kg, 6 h, dose level Low) was 13.5 g/dL. The Lym (10 mg/kg, 6 h, dose level Low) was 77.4%, the MCH (10 mg/kg, 6 h, dose level Low) was 20.7 pg and the MCHC (10 mg/kg, 6 h, dose level Low) was 33.6%. For the same molecule, the MCV (10 mg/kg, 6 h, dose level Low) was 61.8 fL, the Mono (10 mg/kg, 6 h, dose level Low) was 2.6% and the Neu (10 mg/kg, 6 h, dose level Low) was 18.6%. For the same molecule, the RBC (10 mg/kg, 6 h, dose level Low) was 648.4 x10_4/ul, the Ret (10 mg/kg, 6 h, dose level Low) was 6.4% and the WBC (10 mg/kg, 6 h, dose level Low) was 95.9 x10_2/uL. For the same molecule, the KIDNEY_L (10 mg/kg, 6 h, dose level Low) was 1 g, the KIDNEY_R (10 mg/kg, 6 h, dose level Low) was 1 g and the KIDNEY_TOTAL (10 mg/kg, 6 h, dose level Low) was 2.1 g. It also gave an ALP (10 mg/kg, 6 h, dose level Low) of 957 IU/L, an ALT (10 mg/kg, 6 h, dose level Low) of 37.2 IU/L and an AST (10 mg/kg, 6 h, dose level Low) of 70.6 IU/L. The CRE (10 mg/kg, 6 h, dose level Low) was 0.3 mg/dL, the DBIL (10 mg/kg, 6 h, dose level Low) was 0.062 mg/dL and the IP (10 mg/kg, 6 h, dose level Low) was 9 mg/dL. It also gave a K (10 mg/kg, 6 h, dose level Low) of 3.9 meq/L, an LDH (10 mg/kg, 6 h, dose level Low) of 163.8 IU/L and a Na (10 mg/kg, 6 h, dose level Low) of 141 meq/L. The RALB (10 mg/kg, 6 h, dose level Low) was 3.2 g/dL, the TBIL (10 mg/kg, 6 h, dose level Low) was 0.1 mg/dL and the TC (10 mg/kg, 6 h, dose level Low) was 66.8 mg/dL. For the same molecule, the TG (10 mg/kg, 6 h, dose level Low) was 64.4 mg/dL, the TP (10 mg/kg, 6 h, dose level Low) was 5.2 g/dL and the gamma-GTP (10 mg/kg, 6 h, dose level Low) was 1 IU/L. For the same molecule, the TERMINAL_BW (10 mg/kg, 9 h, dose level Low) was 220.5 g, the APTT (10 mg/kg, 9 h, dose level Low) was 17.8 s and the Bas (10 mg/kg, 9 h, dose level Low) was 0%. For the same molecule, the Eos (10 mg/kg, 9 h, dose level Low) was 0.8%, the Fbg (10 mg/kg, 9 h, dose level Low) was 216.6 mg/dL and the Hb (10 mg/kg, 9 h, dose level Low) was 13.4 g/dL. It also gave a Lym (10 mg/kg, 9 h, dose level Low) of 77.8%, an MCH (10 mg/kg, 9 h, dose level Low) of 21 pg and an MCHC (10 mg/kg, 9 h, dose level Low) of 34%. It also gave an MCV (10 mg/kg, 9 h, dose level Low) of 62.1 fL, a Mono (10 mg/kg, 9 h, dose level Low) of 2.8% and a Neu (10 mg/kg, 9 h, dose level Low) of 17.8%. For the same molecule, the RBC (10 mg/kg, 9 h, dose level Low) was 637.8 x10_4/ul, the Ret (10 mg/kg, 9 h, dose level Low) was 6.7% and the KIDNEY_L (10 mg/kg, 9 h, dose level Low) was 1 g. It also gave a KIDNEY_R (10 mg/kg, 9 h, dose level Low) of 1 g, a KIDNEY_TOTAL (10 mg/kg, 9 h, dose level Low) of 2.1 g and an ALP (10 mg/kg, 9 h, dose level Low) of 759.6 IU/L. The ALT (10 mg/kg, 9 h, dose level Low) was 35 IU/L, the AST (10 mg/kg, 9 h, dose level Low) was 66 IU/L and the CRE (10 mg/kg, 9 h, dose level Low) was 0.4 mg/dL. It also gave a DBIL (10 mg/kg, 9 h, dose level Low) of 0.06 mg/dL, an IP (10 mg/kg, 9 h, dose level Low) of 9.5 mg/dL and a K (10 mg/kg, 9 h, dose level Low) of 3.9 meq/L. For the same molecule, the LDH (10 mg/kg, 9 h, dose level Low) was 176.6 IU/L, the Na (10 mg/kg, 9 h, dose level Low) was 141.8 meq/L and the RALB (10 mg/kg, 9 h, dose level Low) was 3.4 g/dL. For the same molecule, the TBIL (10 mg/kg, 9 h, dose level Low) was 0.1 mg/dL, the TC (10 mg/kg, 9 h, dose level Low) was 69.4 mg/dL and the TG (10 mg/kg, 9 h, dose level Low) was 41.6 mg/dL. For the same molecule, the TP (10 mg/kg, 9 h, dose level Low) was 5.3 g/dL, the gamma-GTP (10 mg/kg, 9 h, dose level Low) was 1 IU/L and the TERMINAL_BW (10 mg/kg, 24 h, dose level Low) was 237.5 g. For the same molecule, the Bas (10 mg/kg, 24 h, dose level Low) was 0.2%, the Eos (10 mg/kg, 24 h, dose level Low) was 0.8% and the Fbg (10 mg/kg, 24 h, dose level Low) was 214 mg/dL. For the same molecule, the Hb (10 mg/kg, 24 h, dose level Low) was 13.1 g/dL, the Lym (10 mg/kg, 24 h, dose level Low) was 74.4% and the MCH (10 mg/kg, 24 h, dose level Low) was 21.8 pg. It also gave an MCHC (10 mg/kg, 24 h, dose level Low) of 33.9%, an MCV (10 mg/kg, 24 h, dose level Low) of 64.2 fL and a Mono (10 mg/kg, 24 h, dose level Low) of 3.2%. The Neu (10 mg/kg, 24 h, dose level Low) was 20.8%, the PT (10 mg/kg, 24 h, dose level Low) was 11.8 s and the RBC (10 mg/kg, 24 h, dose level Low) was 601.4 x10_4/ul. The Ret (10 mg/kg, 24 h, dose level Low) was 7%, the WBC (10 mg/kg, 24 h, dose level Low) was 133.5 x10_2/uL and the KIDNEY_L (10 mg/kg, 24 h, dose level Low) was 1.1 g. The KIDNEY_R (10 mg/kg, 24 h, dose level Low) was 1.1 g, the KIDNEY_TOTAL (10 mg/kg, 24 h, dose level Low) was 2.2 g and the ALP (10 mg/kg, 24 h, dose level Low) was 959.4 IU/L. It also gave an ALT (10 mg/kg, 24 h, dose level Low) of 36.8 IU/L, an AST (10 mg/kg, 24 h, dose level Low) of 70 IU/L and a CRE (10 mg/kg, 24 h, dose level Low) of 0.4 mg/dL. For the same molecule, the DBIL (10 mg/kg, 24 h, dose level Low) was 0.082 mg/dL, the IP (10 mg/kg, 24 h, dose level Low) was 7.9 mg/dL and the K (10 mg/kg, 24 h, dose level Low) was 4.2 meq/L. The LDH (10 mg/kg, 24 h, dose level Low) was 177.8 IU/L, the Na (10 mg/kg, 24 h, dose level Low) was 141 meq/L and the RALB (10 mg/kg, 24 h, dose level Low) was 3.2 g/dL. The TBIL (10 mg/kg, 24 h, dose level Low) was 0.1 mg/dL, the TC (10 mg/kg, 24 h, dose level Low) was 72 mg/dL and the TG (10 mg/kg, 24 h, dose level Low) was 84.4 mg/dL.
